Assay results taken from patent US8012975B2, “Antitumoral analogs of ET-743” (Pharma Mar, S.A., priority 2000, dated 2011).
Where two headings read alike, the source gives them in different places.

Key:
H9 [1] = tested on: H9
HL60 [2] = assay: cells; conditions: Homo sapiens, HL-60, read-out: CYTOTOXIC ACTIVITY (M) HL60, leukemias & lymphomas, ALL Promyelocytic leukemia, line HL60
K562 = assay: cells; conditions: Homo sapiens, K562, read-out: CYTOTOXIC ACTIVITY (M) K562
RAMOS [3] = assay: cells; conditions: Homo sapiens, read-out: CYTOTOXIC ACTIVITY (M) RAMOS, leukemias & lymphomas, Lymphoma Burkitts B celll, line RAMOS
Molt 3 [4] = assay: Cytotoxic activity (M) panel, Acute lymphoblastic Molt 3; conditions: Homo sapiens, MOLT-3, read-out: CYTOTOXIC ACTIVITY (M) Molt 3, leukemias & lymphomas, ALL Acute lymphoblastic, line Molt 3
MC116 [5] = assay: Cytotoxic activity (M) panel, Lymphoma undifferentiated MC116; conditions: Homo sapiens, MC116, read-out: CYTOTOXIC ACTIVITY (M) MC116, leukemias & lymphomas, Lymphoma undifferentiated, line MC116
5637 [6] = tested on: 5637
786-O = assay: Cytotoxic activity (M) panel, Renal 786-O; conditions: Homo sapiens, 786-0, read-out: CYTOTOXIC ACTIVITY (M) 786-O
FADU = assay: Cytotoxic activity (M) panel, Pharnynx FADU; conditions: Homo sapiens, read-out: CYTOTOXIC ACTIVITY (M) FADU
Hs746t = assay: Cytotoxic activity (M) panel, Gastric Hs746t; conditions: Homo sapiens, read-out: CYTOTOXIC ACTIVITY (M) Hs746t
SK-HEP-1 = assay: Cytotoxic activity (M) panel, Liver SK-HEP-1; conditions: Homo sapiens, SK-HEP1, read-out: CYTOTOXIC ACTIVITY (M) SK-HEP-1
PANC-1 = assay: Cytotoxic activity (M) panel, Pancreas PANC-1; conditions: Homo sapiens, PANC-1, read-out: CYTOTOXIC ACTIVITY (M) PANC-1
MEL-28 [7] = assay: Cytotoxic activity (M) panel, Melanoma Mel-28; conditions: Homo sapiens, SK-MEL-28, read-out: CYTOTOXIC ACTIVITY (M) Mel-28
Y-79 = assay: Cytotoxic activity (M) panel, Retinoblastoma Y-79; conditions: Homo sapiens, Y79, read-out: CYTOTOXIC ACTIVITY (M) Y-79
CHSA = assay: Cytotoxic activity (M) panel, Chondrosarcoma CHSA; conditions: read-out: CYTOTOXIC ACTIVITY (M) CHSA
OSA-FH [8] = assay: Cytotoxic activity (M) panel, Osteosarcoma OSA-FH; conditions: read-out: CYTOTOXIC ACTIVITY (M) OSA-FH
OSA-FH [9] = tested on: OSA-FH
MX-1 = assay: Cytotoxic activity (M) panel, Breast MX-1; conditions: Homo sapiens, MX1, read-out: CYTOTOXIC ACTIVITY (M) MX-1
HT-29 [10] = assay: Cytotoxic activity (M) panel, Colon HT-29; conditions: Homo sapiens, HT-29, read-out: CYTOTOXIC ACTIVITY (M) HT-29
5637 [11] = assay: Cytotoxic activity (M) panel, Bladder 5637; conditions: read-out: CYTOTOXIC ACTIVITY (M) 5637
PC3 = assay: Cytotoxic activity (M) panel, Prostate PC3; conditions: Homo sapiens, PC-3, read-out: CYTOTOXIC ACTIVITY (M) PC3
NCI-H187 [12] = assay: Cytotoxic activity (M) panel, SCL NCI-H187; conditions: Homo sapiens, NCI-H187, read-out: CYTOTOXIC ACTIVITY (M) NCI-H187
HL60 [13] = conditions: human
Molt 3 [14] = tested on: Molt 3
Hut 78 [15] = conditions: human
MC116 [16] = conditions: human
RAMOS [17] = tested on: RAMOS
[18] = Cytotoxic activity IC50, CV-1; conditions: African green monkey, CV-1 cells
P-388 = assay: Cytotoxic activity IC50, P-388; conditions: Mus musculus, P388, read-out: CYTOTOXIC ACTIVITIY IC50 (μM) P-388
A-549 = assay: Cytotoxic activity IC50, A-549; conditions: Homo sapiens, A549, read-out: CYTOTOXIC ACTIVITIY IC50 (μM) A-549
HT-29 [19] = assay: Cytotoxic activity IC50, HT-29; conditions: Homo sapiens, HT-29, read-out: CYTOTOXIC ACTIVITIY IC50 (μM) HT-29
MEL-28 [20] = assay: Cytotoxic activity IC50, MEL-28; conditions: Homo sapiens, SK-MEL-28, read-out: CYTOTOXIC ACTIVITIY IC50 (μM) MEL-28
DU-145 [21] = assay: Cytotoxic activity IC50, DU-145; conditions: Homo sapiens, DU-145, read-out: CYTOTOXIC ACTIVITIY IC50 (μM) DU-145
H9 [22] = assay: cells; conditions: Homo sapiens, H9, read-out: CYTOTOXIC ACTIVITY (M) H9, leukemias & lymphomas, Lymphoma T-cell, line H9
U-937 = assay: Cytotoxic activity (M) panel, Lymphoma Histiocytic U-937; conditions: Homo sapiens, U-937, read-out: CYTOTOXIC ACTIVITY (M) U-937
Hut 78 [23] = assay: Cytotoxic activity (M) panel, Lymphoma Cutaneus T cell Hut 78; conditions: Homo sapiens, HuT78, read-out: CYTOTOXIC ACTIVITY (M) Hut 78, leukemias & lymphomas, Lymphoma Cutaneus T cell, line Hut 78
[24] = background statement, no test described; cited from earlier work
A549 = assay: Cytotoxic activity (M) panel, NSCL A549; conditions: Homo sapiens, A549, read-out: CYTOTOXIC ACTIVITY (M) A549
SK-OV-3 = assay: Cytotoxic activity (M) panel, Ovary SK-OV-3; conditions: Homo sapiens, SK-OV-3, read-out: CYTOTOXIC ACTIVITY (M) SK-OV-3
LNCAP = assay: Cytotoxic activity (M) panel, Prostate LNCAP; conditions: Homo sapiens, read-out: CYTOTOXIC ACTIVITY (M) LNCAP
DU-145 [25] = assay: Cytotoxic activity (M) panel, Prostate DU-145; conditions: Homo sapiens, DU-145, read-out: CYTOTOXIC ACTIVITY (M) DU-145
SW-694 = assay: Cytotoxic activity (M) panel, Fibrosarcoma SW-694; conditions: read-out: CYTOTOXIC ACTIVITY (M) SW-694
NCI-H187 [26] = tested on: NCI-H187

Structure (SMILES) | IC50 (K562) | IC50 (786-O) | IC50 (FADU) | IC50 (Hs746t) | IC50 (SK-HEP-1) | IC50 (PANC-1) | IC50 (MEL-28 [7]) | IC50 (Y-79) | IC50 (CHSA) | IC50 (MX-1) | IC50 (HT-29 [10]) | IC50 5637 [11] | IC50 (PC3) | other results
CCC(=O)N[C@@H](C)C(=O)NC[C@H]1c2c(c(OC(C)=O)c(C)c3c2OCO3)CC2[C@H]3c4c(cc(C)c(OC)c4O)C[C@@H]([C@H](O)N21)N3C (stereo partly shown) [drawing 232] | 1.18e-08 M | – | – | – | – | – | – | – | – | – | – | – | – | CYTOTOXIC ACTIVITY (M) H9 (H9 [1]): 2.43 to 08 M; IC50 (HL60 [2]): 7.36e-09 M; IC50 (RAMOS [3]): 5.01e-09 M; IC50 (Molt 3 [4]): 9.86e-10 M; IC50 (MC116 [5]): 1.49e-09 M
COc1c(C)cc2c(c1O)[C@@H]1C3Cc4c(OC(C)=O)c(C)c5c(c4[C@H](CNC(=O)Cc4ccccc4)N3[C@@H](O)[C@H](C2)N1C)OCO5 (stereo partly shown) [drawing 217] | – | 1e-08 M | 1.14e-09 M | 1.37e-07 M | 9.5e-09 M | 1.03e-08 M | 4.48e-09 M | 7.78e-09 M | 1.09e-08 M | – | – | – | – | CYTOTOXIC ACTIVITY (M) 5637 5637 [6]: 3.18 to 09 M; IC50 (OSA-FH [8]): 9.5e-09 M
COc1c(C)cc2c(c1O)[C@@H]1C3Cc4c(OC(C)=O)c(C)c5c(c4[C@H](CNC(=O)[C@H](C)NC(=O)Cc4ccccc4)N3[C@@H](O)[C@H](C2)N1C)OCO5 (stereo partly shown) [drawing 216] | – | 2.9e-09 M | 3.77e-08 M | 6.25e-09 M | 9.03e-10 M | 2.58e-09 M | 1.13e-09 M | 1.31e-11 M | 2.25e-09 M | 2.85e-06 M | 1.2e-10 M | 7.85e-10 M | 9.34e-09 M | CYTOTOXIC ACTIVITY (M) OSA-FH (OSA-FH [9]): 1.35 to 08 M; IC50 (NCI-H187 [12]): 2.07e-12 M
COc1c(C)cc2c(c1O)[C@@H]1C3Cc4c(OC(C)=O)c(C)c5c(c4[C@H](COC(=O)/C=C/c4ccccc4)N3[C@@H](O)[C@H](C2)N1C)OCO5 (stereo partly shown) [drawing 239] | – | – | – | – | – | – | – | – | – | – | – | – | – | IC50 (HL60 [13]): 3.1 nM; IC50 (Molt 3 [14]; human): 86.9 pM; IC50 (H9 [1]; human): 21.7 nM; IC50 (Hut 78 [15]): 48.1 nM; IC50 (MC116 [16]): 0.0527 nM; IC50 (RAMOS [17]; human): 1.86 nM
COCOc1c(OC)c(C)cc2c1[C@@H]1C3Cc4c(OC(=O)C(F)(F)C(F)(F)C(F)(F)F)c(C)c5c(c4[C@H](CNC(=O)CCc4ccccc4)N3[C@@H](C#N)[C@H](C2)N1C)OCO5 (stereo partly shown) | – | – | – | – | – | – | – | – | – | – | – | – | – | IC50 [18]: 500 nM; IC50 (P-388): 0.5 µM; IC50 (A-549): 0.5 µM; IC50 (HT-29 [19]): 0.5 µM; IC50 (MEL-28 [20]): 0.5 µM; IC50 (DU-145 [21]): 0.5 µM
COc1c(C)cc2c(c1O)[C@@H]1C3Cc4c(OC(C)=O)c(C)c5c(c4[C@H](COC(=O)/C=C/c4ccccc4)N3[C@@H](O)[C@H](C2)N1C)OCO5 (stereo partly shown) [drawing 238] | 6.13e-08 M | – | – | – | – | – | – | – | – | – | – | – | – | IC50 (HL60 [13]): 13.4 nM; IC50 (Molt 3 [14]; human): 2480 pM; IC50 (Hut 78 [15]): 7.31 nM; IC50 (MC116 [16]): 6.38 nM; IC50 (RAMOS [17]; human): 0.715 nM; IC50 (H9 [22]): 1.91e-08 M
COc1c(C)cc2c(c1O)[C@@H]1C3Cc4c(OC(C)=O)c(C)c5c(c4[C@H](CNC(=O)CCc4ccccc4)N3[C@@H](O)[C@H](C2)N1C)OCO5 (stereo partly shown) [drawing 221] | 2.33e-07 M | – | – | – | – | – | – | – | – | – | – | – | – | IC50 (Molt 3 [14]): 0.0155 pM; IC50 (RAMOS [17]): 0.000777 nM; IC50 (HL60 [2]): 9.38e-09 M; IC50 (H9 [22]): 1.99e-11 M; IC50 (U-937): 3.06e-11 M; IC50 (Hut 78 [23]): 6.21e-11 M
COC1=C(C)C(=O)C2=C(C1=O)[C@@H]1[C@@H]3Cc4c(OC(=O)CO)c(C)c(OC)c(O)c4[C@H](CNC(=O)C(C)=O)N3[C@@H](C#N)[C@H](C2)N1C [Saframycin R] | – | – | – | – | – | – | – | – | – | – | – | – | – | toxicity [24]: moderate toxicity
COc1c(C)cc2c(c1O)[C@@H]1C3Cc4c(OC(C)=O)c(C)c5c(c4[C@H](CNC(=O)/C=C/c4cccc(C(F)(F)F)c4)N3[C@@H](O)[C@H](C2)N1C)OCO5 (stereo partly shown) [drawing 211] | – | 6.58e-12 M | 5.41e-11 M | 7.9e-12 M | 1.79e-12 M | 7.22e-11 M | 2.6e-10 M | – | 3.24e-10 M | 1.65e-06 M | 7.84e-10 M | 6.02e-10 M | 6.65e-09 M | IC50 (A549): 3.25e-09 M; IC50 (SK-OV-3): 4.39e-11 M; IC50 (LNCAP): 5.45e-10 M; IC50 (DU-145 [25]): 5.73e-10 M; IC50 (SW-694): 9.91e-10 M
COc1c(C)cc2c(c1O)[C@@H]1C3Cc4c(OC(C)=O)c(C)c5c(c4[C@H](CNC(=O)/C=C/c4ccccc4)N3[C@@H](O)[C@H](C2)N1C)OCO5 (stereo partly shown) [drawing 213] | – | 1.72e-09 M | 3.71e-10 M | 7.1e-11 M | 3.15e-09 M | 1.29e-10 M | 2.18e-09 M | 8.85e-11 M | 1.39e-09 M | 2.38e-09 M | 2.12e-09 M | 1.91e-10 M | 4.7e-09 M | IC50 (NCI-H187 [26]): 0.0778 pM; IC50 (SK-OV-3): 8.74e-09 M; IC50 (LNCAP): 3.94e-11 M; IC50 (DU-145 [25]): 2.22e-09 M; IC50 (SW-694): 1.39e-06 M; IC50 (OSA-FH [8]): 1.09e-09 M
